Read-outs that look alike come from different tables or passages of the source.
Key:
[1] = test system: D. discoideum GFP-ABD; conditions: 10 µM
[2] = test system: M. marinum luxCDABE; assay type: cell-based, Mycobacterium marinum; conditions: 10 µM
[3] = test system: M. marinum GFP; assay type: cell-based, Mycobacterium marinum; conditions: 10 µM; antibiotic assay
[4] = test system: M. marinum in A. castellanii; assay type: cell-based, Mycobacterium marinum; conditions: 10 µM
[5] = test system: Mtb H37Rv; set-up: method as in Sorrentino et al, 2015; conditions: ref Sorrentino et al, 2015; cited from earlier work
[6] = test system: M. marinum in BV2 microglial cells; assay type: cell-based, Mycobacterium marinum; conditions: for BV2 / M. marinum normalised growth, control=1.00, mean / anti-infective properties in microglial cell (BV2) infection assay / hit in BV2/M. marinum assay True/False: 10 µM
[7] = test system: Mtb H37Rv in THP-1; set-up: method as in Sorrentino et al, 2015; conditions: ref Sorrentino et al, 2015, cited from earlier work; for Extracellular MIC90/ Inracellular MIC90: ratio
[8] = THP1 / Mtb H37Rv infection assay

Row | SMILES | D. discoideum GFP-ABD normalised growth, control=1.00, mean [1] | M. marinum luxCDABE normalised growth, control=1.00, mean [2] | M. marinum GFP normalised growth, control=1.00, mean [3] | A. castellanii / M. marinum normalised growth, control=1.00, mean [4] | Extracellular MIC90 [5] | IC50 [6] | BV2 / M. marinum normalised growth, control=1.00, mean [6] | Intracelullar MIC90 in THP-1 [7, 8] | Extracellular MIC90/ Inracellular MIC90 [7] | M. marinum luxCDABE normalised growth, control = 1.00, mean [2] | Hits A. castellanii/M. marinum assay True/False [4] | anti-infective properties in A. castellanii infection assay [4] | anti-infective properties in microglial cell (BV2) infection assay [6] | hit in BV2/M. marinum assay True/False [6] | Intracelullar MIC90 in THP-1 ([7]; Mtb H37Rv-infected THP1 cells) | D. discoideum GFP-ABD normalised growth, control = 1.00, mean [1]
1 | O=C(c1cc2ccccc2o1)N1CCN(Cc2ccc3c(c2)OCO3)CC1 [GSK861337A] | 0.31 | 0.00 | 0.10 | 0.70 | 2.7 µM | 9.31 µM | 0.77 | 5.55 µM | 0.49 | – | – | – | – | – | – | –
2 | Cc1ccc2nc(C)c(C(=O)NCC(C)C)n2c1 [GSK1829816A] | 1.03 | 0.08 | 0.20 | 1.01 | 7.7 µM | 4.09 µM | 0.61 | 16.65 µM | 0.46 | – | – | – | – | – | – | –
3 | CN1CCN(c2cc(-c3ccncc3)nc(-c3ccccc3)n2)CC1 [GSK275984A] | 0.52 | 0.065 | 0.26 | 1.13 | 9 µM | 5.11 µM | 0.62 | 5.55 µM | 1.62 | – | – | – | – | – | – | –
4 | CCn1c(=O)c(=O)[nH]c2cc(C(=O)Nc3ccccc3Nc3ccc(OC)cc3)ccc21 [GSK1385423A] | 0.39 | 1.00 | 0.98 | 1.07 | 8.4 µM | 2.42 µM | 0.71 | 0.61 µM | 13.77 | – | – | – | – | – | – | –
5 | COc1ccc(CCNc2cc(-c3ccccc3)nc3ncnn23)cc1 [GSK888636A] | 1.15 | 0.00 | 0.44 | 1.02 | 0.6 µM | 5.42 µM | 0.72 | 1.85 µM | 0.32 | – | – | – | – | – | – | –
6 | Cc1ccccc1CN1CCC(O)(c2ccc(Cl)c(C(F)(F)F)c2)CC1 [GSK1985270A] | 0.99 | 0.00 | 0.09 | -0.06 | 4.2 µM | 4.88 µM | 0.45 | 0.21 µM | 20 | 0,00 | TRUE | strong anti-infective properties | strong anti-infective properties | TRUE | 0.21 µM | –
7 | Cc1ccc2nc(C(F)(F)F)c(C(=O)NCc3ccc4c(c3)OCO4)n2c1 [GSK1829732A] | 1.00 | 0.00 | 0.06 | 0.56 | 1.1 µM | 3.52 µM | 0.34 | 1.85 µM | 0.59 | 0,00 | FALSE | – | – | TRUE | 1.85 µM | 1,00
8 | Cc1cc(OCC(=O)Nc2ccccc2)c2cc(Br)ccc2n1 [GW857165X] | 0.90 | 0.00 | 0.81 | 0.83 | 3.3 µM | 3.52 µM | 0.72 | 16.65 µM | 0.2 | – | – | – | – | – | – | –
9 | c1csc(Cc2nn3c(-c4[nH]nc5c4CCC5)nnc3s2)c1 [GSK810037A] | 0.76 | 0.11 | 0.73 | 1.03 | 2.4 µM | 4.8 µM | 0.81 | 1.85 µM | 1.3 | – | – | – | – | – | – | –
10 | CCCCS(=O)(=O)Nc1ccc2cnn(C)c2c1 [GSK3011724A] | 0.99 | 0.14 | 0.08 | -0.32 | 1.3 µM | 4.44 µM | 0.40 | 0.21 µM | 6.19 | – | TRUE | strong anti-infective properties | strong anti-infective properties | TRUE | 0.21 µM | –
11 | COc1ccc2nc(C)cc(OCC(=O)Nc3cc(C)cc(C)c3)c2c1 [GSK749336A] | 0.67 | 0.00 | 0.14 | 0.58 | 0.3 µM | 7.32 µM | 0.63 | 5.55 µM | 0.05 | – | – | – | – | – | – | –
12 | Nc1cccnc1Nc1ccc(Cl)cc1 [GR135486X] | 0.35 | 1.00 | 0.83 | 0.97 | 0.2 µM | 10.8 µM | 0.75 | 5.55 µM | 0.04 | – | – | – | – | – | – | –
13 | Nc1ccccc1Nc1ccc2c(c1)OCO2 [SB-435634] | 1.14 | 1.00 | 1.08 | 1.04 | 1.8 µM | 11.4 µM | 0.63 | 5.55 µM | 0.32 | – | – | – | – | – | – | –
14 | Cc1nc2ccccn2c1C(=O)NCc1ccccc1 [GSK957094A] | 0.93 | 0.11 | 0.0746 | 0.54 | 2 µM | 7.59 µM | 0.52 | 5.55 µM | 0.36 | – | – | – | – | – | – | –
